# Article PMC2192356 (The Journal of Experimental Medicine, 1996)
# Where a SMILES comes first, the peptide text is derived from it. Where no end group is shown, it is not given here. The star is where a group is joined. Biotin = O=C1N[C@H]2[C@H](CS[C@H]2CCCCC(=O)*)N1
# Key:
# IEk [1] = assay type: binding, murine; conditions: pH 5
# DR1 [2] = molecular target: T1, DR1 (Homo sapiens, UniProt P01903+P01911, A100R/D57E/F55L/F60I/F76Y/I96L/L162R/M171V/P40L/Q125E/R42F/V115G/Y59C); assay type: binding; conditions: pH 7
# IAk [3] = molecular target: T2, IAk (Mus musculus, UniProt P01910+P06343); assay type: binding, murine; conditions: pH 5
# IAk [4] = molecular target: T2, IAk; assay type: binding, murine; conditions: pH 7
# IAk [5] = molecular target: T2, IAk; assay type: binding, murine; conditions: pH 5; remark: listed apart in the source
# IAk [6] = molecular target: T2, IAk; assay type: binding, murine; conditions: pH 5; remark: listed apart in the source
# DR1 [7] = molecular target: T1, DR1; assay type: binding; conditions: pH 7; remark: listed apart in the source
# IAd [8] = assay type: binding, murine; conditions: pH 5
# [9] = test system: 3DO-54.8 T cells with CH27 APC; assay type: cell-based
# IEd = assay type: binding, murine; conditions: pH 5
# IAb = assay type: binding, murine
# class II proteins = assay type: binding
# IEk [10] = assay type: binding, murine; conditions: pH 5; remark: listed apart in the source
# IAd [11] = assay type: binding, murine; conditions: pH 5; remark: listed apart in the source
# DR1 [12] = molecular target: T1, DR1; assay type: binding; conditions: pH 5
# IEk [13] = assay type: binding, murine; conditions: pH 5; remark: listed apart in the source
# [14] = molecular target: IAk (mouse (endogenous in CH27 B lymphoma)); assay: ELISA
# [15] = molecular target: DR1 (human (endogenous in LG2)) (UniProt P01903); assay: ELISA
# Chain of biotin-SEB (P01552 28-266): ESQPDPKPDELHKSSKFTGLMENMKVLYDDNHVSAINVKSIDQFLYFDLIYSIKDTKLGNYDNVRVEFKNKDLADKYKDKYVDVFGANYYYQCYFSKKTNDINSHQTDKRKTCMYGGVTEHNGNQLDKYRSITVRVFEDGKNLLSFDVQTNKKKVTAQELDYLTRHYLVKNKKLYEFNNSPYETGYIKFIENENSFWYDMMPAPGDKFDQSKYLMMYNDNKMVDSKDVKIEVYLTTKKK
molecule,measurement,setting,value
"RADLIAYLKQATAK [pCc(91-104), reference compound]",inhibition of the binding of allele-specific antigenic peptides,IEk [1],inhibit
MAT(17-31): DR1-binding antigenic peptide defined by specific T cells (SGPLKAEIAQRLEDV),inhibition of the binding of biotin-B(10-30) to DR1,DR1 [2],25- 50%
CC(C)C[C@H](NC(=O)[C@H](C)NC(=O)[C@H](CCC(=O)O)NC(=O)[C@@H](NC(=O)[C@H](CC(C)C)NC(=O)[C@H](Cc1c[nH]cn1)NC(=O)CCCC[C@@H]1SC[C@@H]2NC(=O)N[C@@H]21)C(C)C)C(=O)N[C@@H](Cc1ccc(O)cc1)C(=O)N[C@@H](CC(C)C)C(=O)N[C@H](C(=O)N[C@@H](CS)C(=O)NCC(=O)N[C@@H](CCC(=O)O)C(=O)N[C@@H](CCCNC(=N)N)C(=O)NCC(=O)N[C@@H](Cc1ccccc1)C(=O)N[C@@H](Cc1ccccc1)C(=O)N[C@@H](Cc1ccc(O)cc1)C(=O)N[C@H](C(=O)N1CCC[C@H]1C(=O)N[C@@H](CCCCNC(=O)CCCC[C@@H]1SC[C@@H]2NC(=O)N[C@@H]21)C(=O)N[C@@H](C)C(=O)O)[C@@H](C)O)C(C)C [biotin-B(10-30)] (Biotin-HLVEALYLVCGERGFFYTPK(Biotin)A-OH; N-terminus and C-terminus assumed),time to saturate the alternative binding site of IAk,IAk [3],≤ 1 h
HLVEALYLVCGERGFFYTPKA [B(10-30)],inhibition of the binding of biotin-SEB to IAk,IAk [4],inhibited
same,peptide concentration giving complete inhibition of SEB binding to IAk,IAk [4],4
same,effect on stimulation by anti-CD3 mAb (T cell toxicity),3DO-54.8 T cells,not altered
same,inhibition of the binding of biotin-B(10-30),IAk [5],inhibit
same,"affinity for the groove of IEk relative to pCc(91-104), logs lower",IEk [1],at least 3 logs
same,inhibition of the binding of allele-specific antigenic peptides,IEk [1],only weakly inhibited
same,inhibition of the binding of allele-specific antigenic peptides,IAk [6],only weakly inhibited
same,specific binding to class II protein,IAk [3],binds
same,"affinity for DR1 relative to HA(306-318), logs lower",DR1 [7],~ 3 logs
same,inhibition of the binding of allele-specific antigenic peptides,DR1 [7],only weakly inhibited
same,specific binding to class II protein,IAd [8],binds
same,inhibition of the response of 3DO-54.8 to SEB (IL-2),[9],inhibited
same,specific binding to class II protein,IEd,binds
same,specific binding to class II protein,IAb,binds
same,dissociation rate from class II,class II proteins,relatively rapid
same,pH dependence of binding to murine class II proteins,class II proteins,not enhanced
same,time to approach saturation / plateau of binding to class II,class II proteins,1 to 2 h
same,inhibition of the binding of biotin-B(10-30),IEk [10],inhibit
same,inhibition of the binding of biotin-B(10-30),IAd [11],inhibit
same,specific binding to class II protein,DR1 [12],binds
same,specific binding to class II protein,IEk [13],binds
"NTDGSTDYGILQINSR [HEL(46-61), reference compound]",inhibition of the binding of biotin-SEB to IAk,IAk [4],No inhibition
same,"affinity for the groove of IEk relative to pCc(91-104), logs lower",IEk [1],at least 3 logs
same,inhibition of the response of 3DO-54.8 to SEB (IL-2),[9],did not
Myo(106-118): IAd-binding peptide (FISEAIIHVLHSR) [reference compound],inhibition of biotin-B(10-30) binding to class II,class II proteins,inhibits
FVNQHLCGSHLVEALYLVCGER [B(1-22)],inhibition of the binding of biotin-B(10-30),IAk [5],inhibits
same,inhibition of the binding of biotin-B(10-30),IEk [10],inhibits
same,inhibition of the binding of biotin-B(10-30),IAd [11],inhibits
Intact insulin [reference compound],inhibition of the binding of biotin-B(10-30),IAk [5],does not inhibit
same,inhibition of the binding of biotin-B(10-30),IEk [10],does not inhibit
same,inhibition of the binding of biotin-B(10-30),IAd [11],does not inhibit
biotin-SEB (from UniProt P01552 28-266) (natural protein),Kd,[14],62 nM
HLVEALYLVCGERGFFYTPKA (not fully specified (N-terminus); also: biotin (site not given here)) [biotin-B(10-30)],Kd,[15],620 nM
